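Briefly, cells in 96-well plates were exposed to five compound concentrations for 48 h, and endpoints were estimated by linear interpolation. GI50 is the concentration that inhibits growth by half. The concentration for full growth arrest is given as TGI.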
How the values were obtained:
Test in all cases: inhibition of tumour cell growth, NCI panel, 48 h
BT-549 breast = test system: BT-549 breast
HCT-15 colon = test system: HCT-15 colon
HS 578T breast = test system: HS 578T breast
IGROV1 ovarian = test system: IGROV1 ovarian
PC-3 prostate = test system: PC-3 prostate
SF-295 CNS = test system: SF-295 CNS
SK-MEL-28 melanoma = test system: SK-MEL-28 melanoma
MCF7 breast = test system: MCF7 breast
M14 melanoma = test system: M14 melanoma
SNB-75 CNS = test system: SNB-75 CNS
SK-MEL-5 melanoma = test system: SK-MEL-5 melanoma
CCRF-CEM leukemia = test system: CCRF-CEM leukemia
786-0 renal = test system: 786-0 renal
SF-539 CNS = test system: SF-539 CNS
SF-268 CNS = test system: SF-268 CNS
OVCAR-3 ovarian = test system: OVCAR-3 ovarian
HOP-92 NSCLC = test system: HOP-92 NSCLC
NCI-H226 lung = test system: NCI-H226 lung
ACHN renal = test system: ACHN renal
MDA-MB-231 breast = test system: MDA-MB-231 breast
KM12 colon = test system: KM12 colon
SW-620 colon = test system: SW-620 colon
OVCAR-8 ovarian = test system: OVCAR-8 ovarian
T-47D breast = test system: T-47D breast
HOP-62 NSCLC = test system: HOP-62 NSCLC
A549 NSCLC = test system: A549 NSCLC
OVCAR-4 ovarian = test system: OVCAR-4 ovarian
HCT-116 colon = test system: HCT-116 colon
NCI/ADR-RES ovarian = test system: NCI/ADR-RES ovarian
RXF 393 renal = test system: RXF 393 renal
SNB-19 CNS = test system: SNB-19 CNS
RPMI-8226 leukemia = test system: RPMI-8226 leukemia
OVCAR-5 ovarian = test system: OVCAR-5 ovarian
DU-145 prostate = test system: DU-145 prostate
UACC-257 melanoma = test system: UACC-257 melanoma
LOX IMVI melanoma = test system: LOX IMVI melanoma
NCI-H460 lung = test system: NCI-H460 lung
NCI-H23 lung = test system: NCI-H23 lung
UACC-62 melanoma = test system: UACC-62 melanoma
MALME-3M melanoma = test system: MALME-3M melanoma
U251 CNS = test system: U251 CNS
SN12C renal = test system: SN12C renal
COLO 205 colon = test system: COLO 205 colon
UO-31 renal = test system: UO-31 renal
A498 renal = test system: A498 renal
SK-OV-3 ovarian = test system: SK-OV-3 ovarian
MDA-MB-435 = test system: MDA-MB-435
HCC-2998 colon = test system: HCC-2998 colon
CAKI-1 renal = test system: CAKI-1 renal

Compound: CC(C)(C)c1ccc(C2CC(=O)C3=C(C2)Nc2ccccc2N(C(=O)c2ccccc2Cl)C3c2ccc(F)cc2)cc1 (stereo not drawn)
- GI50 (BT-549 breast): > 100 µM
- TGI (BT-549 breast): > 100 µM
- GI50 (HCT-15 colon): > 100 µM
- TGI (HCT-15 colon): > 100 µM
- GI50 (HS 578T breast): > 100 µM
- TGI (HS 578T breast): > 100 µM
- GI50 (IGROV1 ovarian): > 100 µM
- TGI (IGROV1 ovarian): > 100 µM
- GI50 (PC-3 prostate): 7.01 µM
- TGI (PC-3 prostate): > 100 µM
- GI50 (SF-295 CNS): > 100 µM
- TGI (SF-295 CNS): > 100 µM
- GI50 (SK-MEL-28 melanoma): > 100 µM
- TGI (SK-MEL-28 melanoma): > 100 µM
- GI50 (MCF7 breast): > 100 µM
- TGI (MCF7 breast): > 100 µM
- GI50 (M14 melanoma): > 100 µM
- TGI (M14 melanoma): > 100 µM
- GI50 (SNB-75 CNS): > 100 µM
- TGI (SNB-75 CNS): > 100 µM
- GI50 (SK-MEL-5 melanoma): > 100 µM
- TGI (SK-MEL-5 melanoma): > 100 µM
- GI50 (CCRF-CEM leukemia): > 100 µM
- TGI (CCRF-CEM leukemia): > 100 µM
- GI50 (786-0 renal): > 100 µM
- TGI (786-0 renal): > 100 µM
- GI50 (SF-539 CNS): > 100 µM
- TGI (SF-539 CNS): > 100 µM
- GI50 (SF-268 CNS): > 100 µM
- TGI (SF-268 CNS): > 100 µM
- GI50 (OVCAR-3 ovarian): > 100 µM
- TGI (OVCAR-3 ovarian): > 100 µM
- GI50 (HOP-92 NSCLC): > 100 µM
- TGI (HOP-92 NSCLC): > 100 µM
- GI50 (NCI-H226 lung): > 100 µM
- TGI (NCI-H226 lung): > 100 µM
- GI50 (ACHN renal): > 100 µM
- TGI (ACHN renal): > 100 µM
- GI50 (MDA-MB-231 breast): > 100 µM
- TGI (MDA-MB-231 breast): > 100 µM
- GI50 (KM12 colon): > 100 µM
- TGI (KM12 colon): > 100 µM
- GI50 (SW-620 colon): > 100 µM
- TGI (SW-620 colon): > 100 µM
- GI50 (OVCAR-8 ovarian): > 100 µM
- TGI (OVCAR-8 ovarian): > 100 µM
- GI50 (T-47D breast): 5.57 µM
- TGI (T-47D breast): > 100 µM
- GI50 (HOP-62 NSCLC): > 100 µM
- TGI (HOP-62 NSCLC): > 100 µM
- GI50 (A549 NSCLC): > 100 µM
- TGI (A549 NSCLC): > 100 µM
- GI50 (OVCAR-4 ovarian): > 100 µM
- TGI (OVCAR-4 ovarian): > 100 µM
- GI50 (HCT-116 colon): > 100 µM
- TGI (HCT-116 colon): > 100 µM
- GI50 (NCI/ADR-RES ovarian): > 100 µM
- TGI (NCI/ADR-RES ovarian): > 100 µM
- GI50 (RXF 393 renal): > 100 µM
- TGI (RXF 393 renal): > 100 µM
- GI50 (SNB-19 CNS): > 100 µM
- TGI (SNB-19 CNS): > 100 µM
- GI50 (RPMI-8226 leukemia): 4.14 µM
- TGI (RPMI-8226 leukemia): > 100 µM
- GI50 (OVCAR-5 ovarian): > 100 µM
- TGI (OVCAR-5 ovarian): > 100 µM
- GI50 (DU-145 prostate): > 100 µM
- TGI (DU-145 prostate): > 100 µM
- GI50 (UACC-257 melanoma): > 100 µM
- TGI (UACC-257 melanoma): > 100 µM
- GI50 (LOX IMVI melanoma): > 100 µM
- TGI (LOX IMVI melanoma): > 100 µM
- GI50 (NCI-H460 lung): > 100 µM
- TGI (NCI-H460 lung): > 100 µM
- GI50 (NCI-H23 lung): > 100 µM
- TGI (NCI-H23 lung): > 100 µM
- GI50 (UACC-62 melanoma): > 100 µM
- TGI (UACC-62 melanoma): > 100 µM
- GI50 (MALME-3M melanoma): > 100 µM
- TGI (MALME-3M melanoma): > 100 µM
- GI50 (U251 CNS): > 100 µM
- TGI (U251 CNS): > 100 µM
- GI50 (SN12C renal): > 100 µM
- TGI (SN12C renal): > 100 µM
- GI50 (COLO 205 colon): > 100 µM
- TGI (COLO 205 colon): > 100 µM
- GI50 (UO-31 renal): > 100 µM
- TGI (UO-31 renal): > 100 µM
- GI50 (A498 renal): 1.3 µM
- TGI (A498 renal): > 100 µM
- GI50 (SK-OV-3 ovarian): > 100 µM
- TGI (SK-OV-3 ovarian): > 100 µM
- GI50 (MDA-MB-435): > 100 µM
- TGI (MDA-MB-435): > 100 µM
- GI50 (HCC-2998 colon): > 100 µM
- TGI (HCC-2998 colon): > 100 µM
- GI50 (CAKI-1 renal): > 100 µM
- TGI (CAKI-1 renal): > 100 µM

Reference: PubChem BioAssay (NCI)
